Experimental data reported in PMC6028453, “BrlR from Pseudomonas aeruginosa is a receptor for both cyclic di-GMP and pyocyanin” (Nature Communications, 2018).

Experiments:
BrlR mutant R67A = biological target: T1, BrlR mutant R67A (Pseudomonas aeruginosa, UniProt Q9HUT5, R67A); test: FP binding assay, BrlR R67A
T1 construct: His6-SUMO (N, cleaved yes); made in house; host or cells: E. coli BL21 DE3
Protocol: (§1) F-c-di-GMP and F-c-di-AMP both contain a fluorophore at one of the 2′-ribose hydroxyls of c-di-GMP and c-di-AMP, respectively (Fig. 2f). To measure the binding of c-di-GMP and c-di-AMP to BrlR variants, 1 nM F-c-di-GMP or F-c-di-AMP was incubated with increasing amounts of indicated BrlR WT, BrlR mutation, or BrlR-C in reaction buffer (25 mM HEPES, 100 mM NaCl, pH 7.5) at 25 °C for 20 min. 1 nM fluorescein was incubated with BrlR WT in the same reaction buffer at 25 °C. FP measurements were conducted on a Synergy 4 Microplate Reader (BioTek) at 25 °C. All experiments were performed in triplicate. The curves were fitted to deduce binding affinities by GraphPad Prism 5.
(§2) BrlR–c-di-GMPs interactions in two separate c-di-GMP binding sites
(§3) In the first binding site, c-di-GMP is half accommodated by the antiparallel β-sheet and two residues (M1 and D35). In detail, the backbone amide protons of the first M1 residue form a hydrogen bond (H-bond) with the phosphate oxygen atom of c-di-GMP, and the side chain of R31 forms two H-bonds with the Gua1 base. The residue D35 also forms an H-bond with the Gua1 base. The aromatic ring of Y40 interacts with the Gua1 base through a hydrophobic π-π interaction. In addition, the hydroxyl group of the Y270 side chain from another subunit interacts with the phosphate 2 of c-di-GMP via an H-bond (Fig. 2d). […]

BrlR mutant R86A = biological target: T2, BrlR mutant R86A (Pseudomonas aeruginosa, UniProt Q9HUT5, R86A); test: FP binding assay, BrlR R86A
T2 construct: His6-SUMO (N, cleaved yes); made in house; host or cells: E. coli BL21 DE3
T2 sequence (Q9HUT5 whole entry R86A): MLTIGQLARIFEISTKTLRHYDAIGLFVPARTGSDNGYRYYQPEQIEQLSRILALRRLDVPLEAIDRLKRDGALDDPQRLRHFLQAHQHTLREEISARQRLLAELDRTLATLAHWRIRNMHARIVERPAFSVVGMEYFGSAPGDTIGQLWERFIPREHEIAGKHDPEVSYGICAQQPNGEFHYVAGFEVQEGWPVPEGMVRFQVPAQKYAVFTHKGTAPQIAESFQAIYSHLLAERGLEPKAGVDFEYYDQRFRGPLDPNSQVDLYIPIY
Protocol: as §1, §2, §3

BrlR R86A DNA binding = biological target: T3, BrlR R86A DNA binding (Pseudomonas aeruginosa, UniProt Q9HUT5, R86A); test: EMSA, BrlR R86A; format: biochemical
T3 construct: His6-SUMO (N, cleaved yes); made in house; host or cells: E. coli BL21 DE3
T3 sequence (Q9HUT5 whole entry R86A): as above
Protocol: A 6-carboxy-fluorescein (FAM)-labeled 36-bp brlR promoter DNA (PbrlR) or 80-bp mexA/mexE promoter DNA (PmexA/PmexE) probes (~0.375 pmol), BrlR protein and varying amounts of inducers were incubated in binding buffer (10 mM Tris HCl [pH 7.4], 50 mM KCl, 1 mM DTT, […] and 5 ng/mL poly [dI-dC]) for 60 min at 25 °C. Finally, glycerol was added to a concentration of 6.5%. The samples were subjected to a 5% polyacrylamide gel electrophoresis and run in 0.5 × Tris-borate-EDTA buffer at 80 V for 1 h at room temperature. Imaging and data analyses were performed using a Typhoon Scanner (GE Healthcare) and Imagequant software. The probes used are listed in Supplementary Table 1.

T1 sequence (Q9HUT5 whole entry R67A): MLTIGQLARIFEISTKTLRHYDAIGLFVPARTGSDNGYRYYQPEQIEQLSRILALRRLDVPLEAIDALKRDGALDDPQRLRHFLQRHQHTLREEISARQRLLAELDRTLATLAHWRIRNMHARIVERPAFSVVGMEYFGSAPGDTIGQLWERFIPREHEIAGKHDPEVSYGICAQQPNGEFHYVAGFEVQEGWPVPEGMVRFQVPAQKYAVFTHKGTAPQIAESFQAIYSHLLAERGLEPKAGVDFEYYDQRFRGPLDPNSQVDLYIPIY

Question: `Nc1nc2c(ncn2[C@@H]2O[C@@H]3COP(=O)(O)O[C@H]4[C@@H](O)[C@H](n5cnc6c(=O)[nH]c(N)nc65)O[C@@H]4COP(=O)(O)O[C@H]3[C@H]2O)c(=O)[nH]1` [c-di-GMP, cyclic diguanylate monophosphate] was tested. Which Kd (BrlR mutant R67A) did it give?
Answer: 16.4 ± 1 µM

Question: And the “KD value (in words)” value (BrlR mutant R86A)?
Answer: like that of C2E mut2

Question: What about the “DNA bound in the presence vs absence of c-di-GMP” value (BrlR R86A DNA binding) of the same compound?
Answer: ~ 1.5 fold
